According to BindingDB's records for doi:10.1021/jm801427r (Universita Di Pisa, 2009):

Target: T1, Adenosine deaminase (Bos taurus, UniProt P56658)
T1 sequence (P56658 whole entry): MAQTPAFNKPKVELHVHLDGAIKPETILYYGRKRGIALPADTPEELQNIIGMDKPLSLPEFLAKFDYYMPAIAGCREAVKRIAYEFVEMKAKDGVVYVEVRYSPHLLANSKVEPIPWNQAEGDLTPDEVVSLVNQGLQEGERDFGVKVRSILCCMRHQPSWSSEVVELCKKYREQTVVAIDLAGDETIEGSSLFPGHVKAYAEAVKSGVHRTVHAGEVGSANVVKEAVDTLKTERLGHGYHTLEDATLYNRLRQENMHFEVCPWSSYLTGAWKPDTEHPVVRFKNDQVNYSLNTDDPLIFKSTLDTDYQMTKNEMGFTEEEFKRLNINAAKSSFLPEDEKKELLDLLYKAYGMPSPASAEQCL
Assay: ADA Enzyme Inhibition Assay
Details: pH 7.2; 30 °C
Procedure: The activity of ADA was determined spectrophotometrically by monitoring the change in absorbance at 262 nm, due to the deamination of adenosine catalyzed by the enzyme. The change in adenosine concentration per min was determined using a Beckman DU-64 kinetics software program (Solf Pack TM Module). To correct for the background change in absorption, a reference blank containing all the assay components except the substrate was prepared. Each inhibitor concentration was tested in triplicate. The IC50 values were determined by linear regression analysis of dose-response curves. The Ki values were calculated from IC50 values by means of the Cheng and Prusoff.

Structure (SMILES) | Ki
O=C(Cc1ccccc1)Nc1ccc(Cn2cc3c(=O)[nH]cnc3n2)cc1 [N-[4-({4-oxo-2H,4H,5H-pyrazolo[3,4-d]pyrimidin-2-yl}methyl)phenyl]-2-phenylacetamide] | 47.9 nM
O=C(Nc1ccc(F)cc1)Nc1ccc(Cn2cc3c(=O)[nH]cnc3n2)cc1 [1-(4-fluorophenyl)-3-[4-({4-oxo-2H,4H,5H-pyrazolo[3,4-d]pyrimidin-2-yl}methyl)phenyl]urea] | 1.15 nM
O=C(Nc1ccc(Cn2cc3c(=O)[nH]cnc3n2)cc1)c1ccccc1 [N-[4-({4-oxo-2H,4H,5H-pyrazolo[3,4-d]pyrimidin-2-yl}methyl)phenyl]benzamide] | 12.7 nM
O=C(Nc1ccc(Cn2cc3c(=O)[nH]cnc3n2)cc1)Nc1ccc(OCc2ccccc2)cc1 [1-[4-(benzyloxy)phenyl]-3-[4-({4-oxo-2H,4H,5H-pyrazolo[3,4-d]pyrimidin-2-yl}methyl)phenyl]urea] | 108 nM
COc1ccc(NC(=O)Nc2ccc(Cn3cc4c(=O)[nH]cnc4n3)cc2)cc1 [1-(4-methoxyphenyl)-3-[4-({4-oxo-2H,4H,5H-pyrazolo[3,4-d]pyrimidin-2-yl}methyl)phenyl]urea] | 28.3 nM
CN(C)c1ccc(NC(=O)Nc2ccc(Cn3cc4c(=O)[nH]cnc4n3)cc2)cc1 [1-[4-(dimethylamino)phenyl]-3-[4-({4-oxo-2H,4H,5H-pyrazolo[3,4-d]pyrimidin-2-yl}methyl)phenyl]urea] | 2.01 nM
O=C(Nc1ccc(Cn2cc3c(=O)[nH]cnc3n2)cc1)c1ccc(C(F)(F)F)cc1 [N-[4-({4-oxo-2H,4H,5H-pyrazolo[3,4-d]pyrimidin-2-yl}methyl)phenyl]-4-(trifluoromethyl)benzamide] | 0.51 nM
CCCCCC[C@H]([C@H](C)O)n1cnc2c(N)ncnc21 [(2S,3R)-3-(6-amino-9H-purin-9-yl)nonan-2-ol] | 1.14 nM
O=C(Nc1ccc(Cc2ccccc2)cc1)Nc1ccc(Cn2cc3c(=O)[nH]cnc3n2)cc1 [1-(4-benzylphenyl)-3-[4-({4-oxo-2H,4H,5H-pyrazolo[3,4-d]pyrimidin-2-yl}methyl)phenyl]urea] | 186 nM

Continued by falling Ki, values first:

Ki | Structure (SMILES)
85.7 nM | O=C(NCc1ccccc1)Nc1ccc(Cn2cc3c(=O)[nH]cnc3n2)cc1 [1-benzyl-3-[4-({4-oxo-2H,4H,5H-pyrazolo[3,4-d]pyrimidin-2-yl}methyl)phenyl]urea]
15.6 nM | COc1ccc(C(=O)Nc2ccc(Cn3cc4c(=O)[nH]cnc4n3)cc2)cc1 [4-methoxy-N-[4-({4-oxo-2H,4H,5H-pyrazolo[3,4-d]pyrimidin-2-yl}methyl)phenyl]benzamide]
2.42 nM | O=C(Nc1ccccc1)Nc1ccc(Cn2cc3c(=O)[nH]cnc3n2)cc1 [3-[4-({4-oxo-2H,4H,5H-pyrazolo[3,4-d]pyrimidin-2-yl}methyl)phenyl]-1-phenylurea]
0.96 nM | O=C(Nc1ccc(Cn2cc3c(=O)[nH]cnc3n2)cc1)c1ccc(F)cc1 [4-fluoro-N-[4-({4-oxo-2H,4H,5H-pyrazolo[3,4-d]pyrimidin-2-yl}methyl)phenyl]benzamide]
0.16 nM | O=C(Nc1ccc(Cn2cc3c(=O)[nH]cnc3n2)cc1)Nc1ccc(C(F)(F)F)cc1 [3-[4-({4-oxo-2H,4H,5H-pyrazolo[3,4-d]pyrimidin-2-yl}methyl)phenyl]-1-[4-(trifluoromethyl)phenyl]urea]
